Entries after “also recorded” stand apart in the source; their conditions may differ. Read-outs that look alike come from different tables or passages of the source.
Columns and labels:
human dendritic cells = type: cell-based
[1] = Photon correlation spectroscopy (PCS) particle size of K6CL22-DNA complexes; type: physicochemical
cells = type: cell-based
[2] = Zeta potential analysis of K6CL22-DNA complexes; type: physicochemical; conditions: peptide:DNA ratio 1.4:1; Hepes
COS cells = type: cell-based; conditions: pCMVβ DNA; medium with chloroquine; 5 hours; triplicate; FIG. 7

Substance | optimal peptide:DNA ratio for transfection (human dendritic cells; […], FIGS. 16 and 17) | transfection efficiency, CL26-complexed DNA compared to CL22-complexed DNA (human dendritic cells; […], FIGS. 16 and 17) | transfection efficiency, CL26-complexed DNA compared to CL22-complexed DNA (human dendritic cells; peptide/DNA ratio between 1 and 1.8, FIG. 18) | size of large particles/aggregates of complex ([1]; 150 mM NaCl, after one hour at room temperature, DNA 40 μg/ml) | average (Zav) particle size ([1]; K6CL22-DNA complexes) | average ratio at which aggregation occurs ([1]; K6CL22-DNA complexes) [μg peptide/μg DNA] | ratio range in which aggregation occurs ([1]; K6CL22-DNA complexes) | effect of coadministered chloroquine on transfection efficiency (cells) | zeta potential of the complex [2] | transfection of dendritic cells (human dendritic cells; complexes of K6Cl22 peptide and pCMVb) | transfection efficiency, CL22-complexed DNA compared to CL26-complexed DNA (human dendritic cells; peptide/DNA ratio between 2 and 2.6, FIG. 18) | peptide/DNA ratio with highest transfection efficiency (human dendritic cells; ratio varied 1.2-2.6, 40 μM chloroquine, […], FIG. 10) | transfection of COS cells (β-galactosidase activity, relative light units per mg of protein) (COS cells)
H-KKKKKKKKKKKKGGFLGFWRGENGRKTRSAYERMCNILKGK-OH [CL26] | 1.6 mg CL26:1 mg DNA | higher efficiency | higher efficiency | – | – | – | – | – | – | – | – | – | –
NH2-KKKKKKGGFLGFWRGENGRKTRSAYERMCNILKGK-COOH (H-KKKKKKGGFLGFWRGENGRKTRSAYERMCNILKGK-OH) [K6CL22] | 1.6-2.2 mg CL22:1 mg DNA | – | – | approx. 100 nm | approximately 100 nm | 1.4 | 1.2-1.6 μg peptide/μg DNA | Increased transfection efficiency | zero | have been transfected | greater | 1.4-2.0 | have been transfected; also recorded: very efficient transfection

Reference: patent publication US6689757B1, “Methods for vaccination and vaccines therefor” (M.L. Laboratories PLC, priority 1996, dated 2004)
